Laboratory results published in patent US12391662B2, “Lipid compounds and lipid nanoparticle compositions” (RINUAGENE BIOTECHNOLOGY CO., LTD., priority 2022, dated 2025).

Legend:
rats = test: Toxicity assay: serum ALT/AST and deaths after single intravenous dose of Luciferase mRNA LNPs; type: in vivo; conditions: LNP intravenous single dose 3 mg/kg, serum 24 hours after administration, FIGS. 3A-3B
Experimental: Animals were grouped according to body weight (five animals per group) one day before administration (Zhejiang Vital River Laboratory Animal Technology Co. Ltd, male, body weight: 170-220 g). […] Luciferase mRNA was encapsulated in said lipid nanoparticle compositions.
The administration volume is 10 mL/kg, and the administration dosage is 3 mg/kg.

balb/c mice = test: Extrahepatic delivery of Luciferase mRNA LNPs after intravenous injection, organ fluorescence (liver, spleen, stomach, intestine tract); type: in vivo; conditions: 20 μg LNP intravenous, 24 hours, FIGS. 2A-2D, compared with MC3 and Compound 20A groups
Experimental: Five balb/c mice (Zhejiang Vital River Laboratory Animal Technology Co., Ltd, female, 6-8 weeks old, 18-20 g) were taken as a group, labeled with a black marker pen on the tail with numbers 1 # to 5 #; five mice in each group were sequentially injected intravenously with 20 μg of the lipid nanoparticle composition. The lipid nanoparticle compositions of the present invention were prepared according to Test Example 1, in which Luciferase mRNA was encapsulated. A phosphate buffered saline (PBS) group was set up in parallel as a blank control, and an MC3 group was set up as a reference (obtained by preparation according to the method and ratio of Test Example 1).
Fluorescence assay was performed for each group of mice at 24 hours after intravenous administration of the samples ([…] YEASEN,LOT:D5330150, IP, 150 mg/kg was administered 10 minutes in advance for each group), the mice were anesthetized, and then put into a small animal living optical imaging system-IVIS® Lumina LT Series III according to the orders from tail mark 1 # to 5 #. The whole-body fluorescence was detected to evaluate the delivery and the expression of the prepared Luciferase mRNA.
At the end of the test, the mice were sacrificed by cervical dislocation, and the liver, spleen, stomach, and intestine tract were harvested, and the organs were discharged according to the corresponding positions from 1 # to 5 # for fluorescence detection of the organs.

[1] = LNP mRNA encapsulation efficiency (Quant-iT RiboGreen RNA Assay Kit); type: physicochemical; conditions: LNP of Compound:cholesterol:DSPC:DMG-PEG2000=50:38.5:10:1.5 encapsulating mRNA
Experimental: The mRNA stock solution was dispersed in 20 mM acetic acid solution (pH 5.0) to give a final concentration of 200 μg/mL (aqueous phase). […] The mRNA was mixed with the lipid mixture by T-mixing and controlling the flow rate of aqueous phase and oil phase (3:1) with a total flow rate of 12-50 ml/min, to obtain LNP-encapsulated mRNA. The encapsulated LNP was diluted with buffer (pH 5.0-5.5) and then concentrated by ultrafiltration with replacement of diluent, and finally LNP was concentrated to 200 μg/mL˜600 μg/mL of mRNA, while the pH of LNP was adjusted to about 7-8. Finally, Quant-iT™ RiboGreen™ RNA Assay Kit (Invirtogen by Thermo Fisher Scientific, cat #R11490), and 10% Triton X-100 solution or 10% OTG solution as an emulsion breaker were used to detect the total and free content of mRNA in the LNP, and the encapsulation efficiency of LNP was calculated.

[2] = LNP particle size and PDI (Malvern ZetaSizer); type: physicochemical; conditions: LNP of Compound:cholesterol:DSPC:DMG-PEG2000=50:38.5:10:1.5 encapsulating mRNA
Experimental: The mRNA stock solution was dispersed in 20 mM acetic acid solution (pH 5.0) to give a final concentration of 200 μg/mL (aqueous phase). […] The mRNA was mixed with the lipid mixture by T-mixing and controlling the flow rate of aqueous phase and oil phase (3:1) with a total flow rate of 12-50 ml/min, to obtain LNP-encapsulated mRNA. The encapsulated LNP was diluted with buffer (pH 5.0-5.5) and then concentrated by ultrafiltration with replacement of diluent, and finally LNP was concentrated to 200 μg/mL˜600 μg/mL of mRNA, while the pH of LNP was adjusted to about 7-8. […]

**Q.** Which “aspartate aminotransferase and alanine aminotransferase values compared with MC3 and SM102 groups” value (rats) does the source give for `CCCCCCCCCCCOC(=O)CCCCCC1(CCCCCCCC(=O)OC(CCCCCCCC)CCCCCCCC)OC[C@H](CCN(C)C)O1` (stereo partly shown) [Compound 2A] here?
**A.** The value was “lower than those of the groups of the ionizable lipids MC3 and SM102”.

**Q.** What about the extrahepatic delivery effect (balb/c mice) of the same compound?
**A.** Its extrahepatic delivery effect is “significant extrahepatic delivery effects”.

**Q.** And the “Encapsulation Efficiency” value [1]?
**A.** Its value is 96.44%.

**Q.** And the PDI [2]?
**A.** The PDI was 0.02967.

**Q.** What about the “Particle Size” value [2] of the same compound?
**A.** Its value is 86.26 nm.

**Q.** Which “aspartate aminotransferase and alanine aminotransferase values compared with MC3 and SM102 groups” value (rats) does the source give for `CCCCCCCCCCC(=O)OCCCCCCC1(CCCCCCCC(=O)OC(CCCCCCCC)CCCCCCCC)OC[C@H](CCN(C)C)O1` (stereo partly shown) [Compound 5A] here?
**A.** Its value is “lower than those of the groups of the ionizable lipids MC3 and SM102”.

**Q.** What about the extrahepatic delivery effect (balb/c mice) of the same compound?
**A.** Its extrahepatic delivery effect is “significant extrahepatic delivery effects”.

**Q.** What about the “Encapsulation Efficiency” value [1] of the same compound?
**A.** Its value is 96.0%.

**Q.** What about the PDI [2] of the same compound?
**A.** The PDI was 0.1311.

**Q.** And the “Particle Size” value [2]?
**A.** Its value is 73.41 nm.
